Measured values reported in the supplement of paper PMC10307832.

Columns and labels:
Experiment in all cases: relative viability (nuclei count vs DMSO), 5 days (fraction); higher = more cells survive
IMD-0354 + Bortezomib = compound: O=C(Nc1cc(C(F)(F)F)cc(C(F)(F)F)c1)c1cc(Cl)ccc1O [IMD-0354] + CC(C)C[C@H](NC(=O)[C@H](Cc1ccccc1)NC(=O)c1cnccn1)B(O)O [Bortezomib] (partner 0.002 µM)
In short: (§1)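 Each reported value is a median over duplicate plates. It expresses relative viability: treated-well nuclei count divided by vehicle-well nuclei count. Lung cancer cell lines in 1536-well plates were dosed by pin tool a day after seeding, alone with one drug or with a fixed anchor-drug dose plus five library-drug doses (not always all listed) in √10 steps, and nuclei were counted after 5 days.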

IMD-0354 + Trametinib = compound: O=C(Nc1cc(C(F)(F)F)cc(C(F)(F)F)c1)c1cc(Cl)ccc1O [IMD-0354] + CC(=O)Nc1cccc(-n2c(=O)n(C3CC3)c(=O)c3c(Nc4ccc(I)cc4F)n(C)c(=O)c(C)c32)c1 [Trametinib] (partner 0.02 µM)
In short: as §1

CX-5461 + Pictilisib = compound: Cc1cnc(CNC(=O)c2c(=O)c3ccc(N4CCCN(C)CC4)nc3n3c2sc2ccccc23)cn1 [CX-5461] + CS(=O)(=O)N1CCN(Cc2cc3nc(-c4cccc5[nH]ncc45)nc(N4CCOCC4)c3s2)CC1 [Pictilisib] (partner 1 µM)
In short: as §1

CX-5461 + Crizotinib = compound: Cc1cnc(CNC(=O)c2c(=O)c3ccc(N4CCCN(C)CC4)nc3n3c2sc2ccccc23)cn1 [CX-5461] + C[C@@H](Oc1cc(-c2cnn(C3CCNCC3)c2)cnc1N)c1c(Cl)ccc(F)c1Cl [Crizotinib] (partner 1 µM)
In short: as §1

UMC-11
relative viability (IMD-0354 + Bortezomib; first compound 0.04 µM): 1.13 | relative viability (IMD-0354 + Bortezomib; first compound 0.1265 µM): 0.796 | relative viability (IMD-0354 + Bortezomib; first compound 0.4 µM): 0.465 | relative viability (IMD-0354 + Bortezomib; first compound 1.265 µM): 0.237 | relative viability (IMD-0354 + Bortezomib; first compound 4 µM): 0.212 | relative viability (IMD-0354 + Trametinib; first compound 0.04 µM): 0.745 | relative viability (IMD-0354 + Trametinib; first compound 0.1265 µM): 0.808 | relative viability (IMD-0354 + Trametinib; first compound 0.4 µM): 0.337 | relative viability (IMD-0354 + Trametinib; first compound 1.265 µM): 0.194 | relative viability (IMD-0354 + Trametinib; first compound 4 µM): 0.246 | relative viability (CX-5461 + Pictilisib; first compound 0.01 µM): 0.869 | relative viability (CX-5461 + Pictilisib; first compound 0.03162 µM): 0.835 | relative viability (CX-5461 + Pictilisib; first compound 0.1 µM): 0.76 | relative viability (CX-5461 + Pictilisib; first compound 0.3162 µM): 0.149 | relative viability (CX-5461 + Pictilisib; first compound 1 µM): 0.259 | relative viability (CX-5461 + Crizotinib; first compound 0.01 µM): 0.63 | relative viability (CX-5461 + Crizotinib; first compound 0.03162 µM): 0.655 | relative viability (CX-5461 + Crizotinib; first compound 0.1 µM): 0.694 | relative viability (CX-5461 + Crizotinib; first compound 0.3162 µM): 0.607 | relative viability (CX-5461 + Crizotinib; first compound 1 µM): 0.153
